Reference: US6596878B2, “Methods and compositions for inhibiting cell proliferative disorders” (Yissum Research & Development Company of the Hebrew …, priority 1994, dated 2003)
Where two headings read alike, the source gives them in different places.

Assays:
HER2 = biological target: T1, HER2 (Homo sapiens, UniProt P04626); test: HER2-BT474 whole cell kinase ELISA; assay type: cell-based
T1 construct: the human mammary carcinoma line BT474 (ATCC HTB2) expressing HER2; endogenous in cells; host or cells: BT474 human mammary carcinoma cells
Protocol: HER2-BT474 assays measuring whole cell HER2 activity was carried out as described below:
All the following steps are at room temperature and aseptically, unless stated otherwise. All ELISA plate washing is by rinsing with distilled water three times and once with TBST.
Incubate the cells in 5% CO2 at 37° C. overnight.
2. ELISA Plate Coating and Blocking

human EGF receptor = biological target: T2, human EGF receptor (Homo sapiens, UniProt P00533); test: EGF-receptor whole cell kinase assay (EGFR-3T3); assay type: cell-based
T2 construct: expressed in transfected cells; host or cells: NIH3T3 clone C7 (EGFR/C7; mouse fibroblasts)
Protocol: (§1) The following target cells were used for cellular kinaseassays: NIH3T3 clone C7 (Honegger et al., supra) engineered to over-express human EGF receptor; NIH3T3 cells engineered to over-express a chimeric receptor containing the EGFR extracellular domain and the HER2 intracellular kinase domain; the human mammary carcinoma line BT474 (ATCC HTB2) expressing HER2; and the human glioblastoma line U1242 that expresses PDGFR-β. Growth assays were carried out using human mammary epithelial SKBR3 (ATCC HTB30) cells, SKOV3 (ATCC HTB77) human ovarian cancer cell line, A431 cells, MCF7 human breast carcinoma cells, MCF7 cells overexpress the HER2 kinase (MCF7-HER2), NIH3T3 cells, and NIH3T3 cells overexpressing the HER2 kinase (3T3-HER2).
Unless otherwise stated the effect of various compounds on receptor tyrosine kinases were assayed as described in this section.
1. EGF-receptor Whole Cell Kinase Assay
EGFR kinase activity (EGFR-3T3 assay) in whole cells was measured as described below:
The following protocol was used:
A. Coat ELISA plates (Corning, 96 well, Cat. #25805-96) with 05-101 antibody at 0.5 μg per well in PBS, 150 μl final volume/well, and store overnight at 4° C. Coated plates are good for up to 10 days when stored at 4° C.
B. On day of use, remove coating buffer and replace with blocking buffer (5% Carnation Instant Non-Fat Dry Milk in PBS). Incubate the plate, shaking, at room temperature (about 23° C. to 25° C.) for 30 minutes. Just prior to use, remove blocking buffer and wash plate 4 times with TBST buffer.
A. EGFR/C7 cell line (Honegger, et al., Cell 51:199-209, 1987) can be use for this assay.
B. Choose dishes having 80-90% confluence for the experiment. Trypsinize cells and stop reaction by adding 10% CS DMEM medium. Suspend cells in DMEM medium (10% CS DMEM medium) and centrifuge once at 1000 rpm, and once at room temperature for 5 minutes.
C. Resuspend cells in seeding medium (DMEM, 0.5% bovine serum), and count the cells using trypan blue. Viability above 90% is acceptable. Seed cells in DMEM medium (0.5% bovine serum) at a density of 10,000 cells per well, 100 μl per well, in a 96 well microtiter plate. Incubate seeded cells in 5% CO2 at 37° C. for about 40 hours.
A. Check seeded cells for contamination using an inverted microscope. Dilute drug stock (10 mg/ml in DMSO) 1:10 in DMEM medium, then transfer 5 μl to a test well for a final drug dilution of 1:200 and a final DMSO concentration of […]. Control wells receive DMSO alone. Incubate in 5% CO2 at 37° C. for one hour.
B. Prepare EGF ligand: dilute stock EGF in DMEM so that upon transfer of 10 μl dilute EGF (1:12 dilution), 25 nM final concentration is attained.
C. Prepare fresh HNTG* sufficient for 100 μl per well; and place on ice.
D. After two hours incubation with drug, add prepared EGF ligand to cells, 10 μl per well, to yield a final concentration of 25 nM. Control wells receive DMEM alone. Incubate, shaking, at room temperature, for 5 minutes.
E. Remove drug, EGF, and DMEM. Wash cells twice with PBS. Transfer HNTG* to cells, 100 μl per well. Place on ice for 5 minutes. Meanwhile, remove blocking buffer from other ELISA plate and wash with TBST as described above.
F. With a pipette tip securely fitted to a micropipettor, scrape cells from plate and homogenize cell material by repeatedly aspirating and dispensing the HNTG* lysis buffer. Transfer lysate to a coated, blocked, and washed ELISA plate. Incubate shaking at room temperature for one hour.
G. Remove lysate and wash 4 times with TBST. Transfer freshly diluted anti-Ptyr antibody to ELISA plate at 100 μl per well. Incubate shaking at room temperature for 30 minutes in the presence of the anti-Ptyr antiserum (1:3000 dilution in TBST).
H. Remove the anti-Ptyr antibody and wash 4 times with TBST. Transfer the freshly diluted TAGO anti-rabbit IgG antibody to the ELISA plate at 100 μl per well.

[1] = test system: MCF7 cells overexpress the HER2 kinase (MCF7-HER2); test: MCF-7/HER-2 SRB growth assay; assay type: cell-based, human; settings: Table VI, 0.5% FBS, four days
Text: as §1, with “This example illustrates the ability of the exemplary compounds to inhibit receptor tyrosine kinases, such as HER2 and/or EGFR. The” for “The”
(§2) MCF-7 cells are seeded at 2000 cells/ well in a 96-well flat bottom plate in normal growth media, which was 10% FBS/RPMI supplemented with 2 mM Glutamine. The plate of cells is incubated for about 24 hours at 37° C. after which it receives an equal volume of compound dilution per well making the total volume per well 200 μl. The compound is prepared at 2 times the desired highest final concentration and serially diluted in the normal growth media in a 96-well round bottom plate and then transferred to plate of cells. DMSO serves as the vector control up to 0.2% as final concentration. The cells are then incubated at 37° C. in a humidified 5% CO2 incubator.
(§3) Four days following dosing of compound, the media is discarded and 200 μl/well of ice-cold 10% TCA (Trichloroacetic Acid) is added to fix cells. After 60 minutes at 4° C., the TCA is discarded and the plate is rinsed 5 times with water. The plate is then air-dried and 100 μl/well of 0.4% SRB (Sulforhodamine B from Sigma) in 1% Acetic Acid is added to stain cells for 10 minutes at room temperature. The SRB is discarded and the plate is rinsed 5 times with 1% Acetic Acid. After the plate is completely dried, 100 μl/well of 10 mM Tris-base is added to solubilize the dye. After 5 to 10 minutes, the plate is read on a Dynatech ELISA Plate Reader at dual wavelengths at 570 nm and 630 nm.
8. MCF-7/HER-2 SRB Growth Assay
The protocol is basically the same as that above (for the MCF-7 Growth Assay) except that immediately before the compound is added, the normal growth media is removed and 0.5% FBS/RPMI supplemented with 2 mM Glutamine is added onto the cells. The compound is also prepared in this 0.5% serum media. The plate of cells is incubated for four days and developed as usual.

[2] = test system: MCF7 human breast carcinoma cells; test: MCF-7 SRB growth assay; assay type: cell-based; settings: Table VI, 10% FBS, four days
Text: as §1, with “This example illustrates the ability of the exemplary compounds to inhibit receptor tyrosine kinases, such as HER2 and/or EGFR. The” for “The”
6. MCF-7 SRB Growth Assay
as §2, §3

A431 cells = test: A431 growth assay (sulphorhodamine B); assay type: cell-based; settings: Homo sapiens, A-431, 96 h; Table V; 4 days, SRB; read-out: Estimated IC50 Growth Assays A431 cells
Text: as §1, with “This example illustrates the ability of the exemplary compounds to inhibit receptor tyrosine kinases, such as HER2 and/or EGFR. The” for “The”
SKBR3 cells over-express HER2. A431 cells over-express EGFR. These cells were dispensed into 96-well plates with test compounds. After 4 days the monolayers were TCA-fixed then stained with sulphorhodamine B. The absorbance versus log drug concentration was plotted and IC50 values estimated.
(4) Tris, crystallized free base—Fisher Catalog #BP152 Working solution: 10 mM tris=1.211 gram Trizma base/liter H2O. […]
(11) Read optical density at dual wavelength mode 570 nm and 630 nm on Dynatech ELISA plate reader, Model MR 5000.

[3] = HER2-BT474, Table VI, cellular kinase assay
[4] = Table V, read-out: Estimated IC50 Cellular Kinase Assays HER2 (BT474)
[5] = Table V, read-out: Estimated IC50 Cellular Kinase Assays EGFR (EGF-3T3)
[6] = Table VI, cellular kinase assay, read-out: EGFR-3T3
[7] = Table VI, cellular kinase assay, read-out: HER2-BT474
[8] = Estimated IC50 Cellular Kinase Assays HER2 (BT474), Table V
[9] = Table III, cellular kinase assay, class symbol, read-out: HER2
[10] = Table III, cellular kinase assay, class symbol, read-out: EGFR

T2 sequence (P00533 25-1210): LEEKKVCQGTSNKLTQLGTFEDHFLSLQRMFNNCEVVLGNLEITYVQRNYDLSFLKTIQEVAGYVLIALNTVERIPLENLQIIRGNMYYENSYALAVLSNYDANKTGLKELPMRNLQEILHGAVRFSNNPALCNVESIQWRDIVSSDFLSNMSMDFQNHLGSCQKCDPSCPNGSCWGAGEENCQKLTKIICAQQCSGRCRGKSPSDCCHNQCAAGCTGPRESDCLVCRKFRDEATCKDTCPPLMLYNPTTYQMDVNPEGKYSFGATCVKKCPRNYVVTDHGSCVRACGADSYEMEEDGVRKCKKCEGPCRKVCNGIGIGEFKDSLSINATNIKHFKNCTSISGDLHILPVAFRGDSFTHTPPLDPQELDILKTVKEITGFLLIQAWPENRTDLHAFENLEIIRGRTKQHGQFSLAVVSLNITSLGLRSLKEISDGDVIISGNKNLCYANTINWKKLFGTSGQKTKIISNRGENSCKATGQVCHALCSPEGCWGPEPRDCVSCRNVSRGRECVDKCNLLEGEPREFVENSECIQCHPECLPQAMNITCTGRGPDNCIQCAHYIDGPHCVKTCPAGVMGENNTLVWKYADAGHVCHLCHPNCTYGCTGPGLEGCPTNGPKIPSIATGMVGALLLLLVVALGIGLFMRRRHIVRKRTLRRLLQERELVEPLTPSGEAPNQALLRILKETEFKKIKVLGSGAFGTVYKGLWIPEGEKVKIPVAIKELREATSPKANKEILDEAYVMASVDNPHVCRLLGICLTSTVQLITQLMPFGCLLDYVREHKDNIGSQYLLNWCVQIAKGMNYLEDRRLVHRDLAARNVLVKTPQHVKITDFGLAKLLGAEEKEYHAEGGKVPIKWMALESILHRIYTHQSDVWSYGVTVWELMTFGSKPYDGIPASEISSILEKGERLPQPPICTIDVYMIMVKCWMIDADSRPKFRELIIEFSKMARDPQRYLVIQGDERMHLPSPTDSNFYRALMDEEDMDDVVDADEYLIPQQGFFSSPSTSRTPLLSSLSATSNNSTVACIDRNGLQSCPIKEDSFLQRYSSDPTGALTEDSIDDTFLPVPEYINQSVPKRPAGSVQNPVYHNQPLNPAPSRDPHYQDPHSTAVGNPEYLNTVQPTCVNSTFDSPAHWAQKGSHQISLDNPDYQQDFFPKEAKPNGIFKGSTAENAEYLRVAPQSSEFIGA
T1 sequence (P04626 23-1255): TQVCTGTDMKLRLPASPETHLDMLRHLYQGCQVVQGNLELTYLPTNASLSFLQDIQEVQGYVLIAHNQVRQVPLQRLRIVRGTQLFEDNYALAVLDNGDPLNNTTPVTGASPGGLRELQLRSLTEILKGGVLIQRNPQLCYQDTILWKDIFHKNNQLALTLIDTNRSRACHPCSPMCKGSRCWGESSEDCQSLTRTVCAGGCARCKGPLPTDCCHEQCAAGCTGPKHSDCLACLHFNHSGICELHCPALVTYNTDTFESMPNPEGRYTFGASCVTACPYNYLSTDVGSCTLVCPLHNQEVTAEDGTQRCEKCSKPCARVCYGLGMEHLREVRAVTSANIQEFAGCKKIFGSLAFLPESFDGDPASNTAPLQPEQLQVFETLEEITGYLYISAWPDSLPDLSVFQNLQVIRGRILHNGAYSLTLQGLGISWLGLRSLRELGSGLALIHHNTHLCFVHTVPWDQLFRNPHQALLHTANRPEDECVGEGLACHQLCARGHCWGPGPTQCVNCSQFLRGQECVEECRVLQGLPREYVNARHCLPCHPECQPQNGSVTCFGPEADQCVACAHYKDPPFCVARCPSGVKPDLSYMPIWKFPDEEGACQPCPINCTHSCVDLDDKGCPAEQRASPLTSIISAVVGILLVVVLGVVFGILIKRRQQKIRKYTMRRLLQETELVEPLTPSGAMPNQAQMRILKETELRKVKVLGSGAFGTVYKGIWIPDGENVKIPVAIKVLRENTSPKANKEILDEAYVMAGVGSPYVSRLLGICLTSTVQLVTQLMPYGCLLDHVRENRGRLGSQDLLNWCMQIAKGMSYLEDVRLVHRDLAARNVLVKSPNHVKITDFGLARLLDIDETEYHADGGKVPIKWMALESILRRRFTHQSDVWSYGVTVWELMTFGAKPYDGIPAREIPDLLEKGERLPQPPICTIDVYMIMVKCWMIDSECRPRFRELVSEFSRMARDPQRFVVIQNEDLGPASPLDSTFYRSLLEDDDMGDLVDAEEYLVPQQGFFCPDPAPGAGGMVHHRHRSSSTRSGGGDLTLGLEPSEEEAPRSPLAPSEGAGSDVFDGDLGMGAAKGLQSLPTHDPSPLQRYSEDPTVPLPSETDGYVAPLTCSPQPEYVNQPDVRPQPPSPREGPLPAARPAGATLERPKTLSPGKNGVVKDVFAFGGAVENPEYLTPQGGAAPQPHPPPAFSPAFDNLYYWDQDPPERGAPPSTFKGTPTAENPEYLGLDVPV

Structure (SMILES)	IC50 (HER2; [4])	IC50 (human EGF receptor; [5])	IC50 (human EGF receptor; [6])	IC50 (HER2; [7])	also measured
N#C/C(=C\c1ccc(O)c(O)c1)C(=O)NCCCCc1ccccc1 [Compound M10]	30.6 µM	> 50 µM	≥ 50 µM		IC50 (HER2; [3]): 30.6 µM
N#CC(C#N)=Cc1cc(O)c(O)c(I)c1 [Compound M12]	> 50 µM	13.4 µM	13.4 µM	> 50 µM	
CC(C)(C)c1cc(C=C(C#N)C#N)cc(Br)c1O [Compound M14]	> 50 µM	37.2 µM	37.2 µM	> 50 µM	
CC(C)(C)c1cc(C=C(C#N)c2[nH]nc(N)c2C#N)cc(C(C)(C)C)c1O [Compound M17]	8.58 µM	8.65 µM	8.65 µM	8.58 µM	
CC(C)c1cc(C=C(C#N)C#N)cc(C(C)C)c1O [Compound M19]		> 50 µM	> 50 µM		IC50 (HER2; [8]): 10.6 µM; IC50 (HER2; [3]): 10.6 µM
N#C/C(=C\c1cc(O)c(O)c(I)c1)C(=O)NCc1ccccc1 [Compound M23]			17 µM	26 µM	
CC(C)c1cc(/C=C(\C#N)C(N)=S)cc(C(C)C)c1O [Compound M25, (E)-2-Aminothiocarbonyl-3-(3,5-diisopropyl-4-hydroxyphenyl)acrylonitrile]			> 100 µM	3.1 µM	
CC(C)c1cc(/C=C(\C#N)C(=O)Nc2ccc(C(F)(F)F)cc2)cc(C(C)C)c1O [Compound M28, (E)-3-(3,5-Diisopropyl-4-hydroxyphenyl)-2-[(4-trifluoromethyl)phenylaminocarbonyl]acrylonitrile]				2.2 µM	IC50 ([1]; Homo sapiens, MCF7, 96 h): 2 µM; IC50 ([2]; Homo sapiens, MCF7, 96 h): 12 µM
Cc1cc(/C=C(\C#N)S(=O)(=O)/C(C#N)=C/c2cc(C)c(O)c(C)c2)cc(C)c1O [Compound M38]			> 100 µM	14 µM	activity in cellular assays (HER2; cellular assays of the Examples, versus analogous compounds having bulkier R1 and R3 groups): less activity; IC50 [1]: > 100 µM; IC50 [2]: > 100 µM
N#C/C(=C\c1ccc([N+](=O)[O-])c(O)c1)C(=O)NCCCc1ccccc1 [Compound M39, (E)-3-(3-Hydroxy-4-nitrophenyl)-2-[(3-phenyl-n-propyl)aminocarbonyl]acrylonitrile]			6.8 µM	39 µM	
Cc1ccc2ncnc(Nc3cccc(Cl)c3)c2c1 [Compound P12a]	7.14 µM	0.04 µM			IC50 (HER2; [9]): < 50 µM; IC50 (human EGF receptor; [10]): < 50 µM; IC50 (A431 cells): 10 µM
COc1cc2ncnc(Nc3cccc(Cl)c3)c2cc1OC [Compound P13a]	1.6 µM				IC50 (HER2; [9]): < 50 µM
Cc1ccc2ncnc(Nc3ccc4c(c3)OCO4)c2c1 [Compound P14a]	> 50 µM	22.2 µM			IC50 (HER2; [9]): > 50 µM; IC50 (human EGF receptor; [10]): < 50 µM
Cc1ccc2ncnc(Nc3ccc4c(c3)OCO4)c2c1 [Compound P14b]	> 50 µM	20.9 µM			IC50 (HER2; [9]): > 50 µM; IC50 (human EGF receptor; [10]): < 50 µM
N#CC(C#N)=NNc1cccc(Cl)c1 [Compound Q11]					IC50 (HER2; [8]): 11.1 µM; inhibition of HER2 activity (HER2; significantly inhibit = IC50 less than 50 μM): significantly inhibited; IC50 (human EGF receptor; Estimated IC50 Cellular Kinase Assays EGFR (EGF-3T3), Table V): > 50 µM
Cc1cc2nc(CBr)c(-c3ccccc3)nc2cc1C [Compound R9]	20.7 µM	35.5 µM			
Clc1cc2ncc(-c3ccccc3)nc2cc1Cl [Compound R14]	25 µM	25 µM			
Cc1cc2nc3c(nc2cc1C)-c1ccccc1C3=O [Compound R15]	> 50 µM	25 µM			
